Test results from patent US20250009739A1, “METHOD OF TREATING A SKIN DISORDER” (PHAMRI Norden AB, priority 2021, published 2025).

Legend:
ENaC [1] = details: cited from earlier work
NCX = NCX (Homo sapiens, UniProt P32418); details: cited from earlier work
[2] = human oral dosing 10 mg, adults; cited from earlier work
[3] = system: Primary human keratinocytes; test: Proliferation / cell viability (alamar blue) of TNFα-stimulated keratinocytes; format: cell-based; details: low-level inflamed keratinocyte conditions (TNFα 5 ng/ml, 24 hours)
Procedure: Primary human keratinocytes were thawed according to manufacturer's instructions, washed in growth medium (GM) and viability assessed via Tryphan blue. Cells were incubated at 37° C. with 5% CO2. After confluence, a stock cell solution of 1.5×10^5 cells/ml was prepared in GM. 200 μL of the cell suspension was added to each well of respective 96 well plates for a total of 3×10^4 cells/well. Cells were incubated at 37° C. with 5% CO2 overnight for adherence. After overnight incubation, cell culture media was removed from each well and 100 μL of fresh GM was added to each well. Appropriate concentrations of inhibitor compound, vehicle and TNFα was prepared in GM of a final volume of 3 ml. Concentrations of non-benzamil inhibitors were chosen to be 0.1×, 1× and 10× the IC50 for each primary target. […] Concentration of TNF alpha was selected to recapitulate a low level of pro-inflammatory cytokine stimulation.
100 μl of each treatment was added to appropriate wells. Samples were incubated for 24 hours. 20 hours post TNFα stimulation, 20 μL of alamar blue was added for each well. Cells were incubated for 4 hours at 37° C. 24 hours post TNFα stimulation, the fluorescence of each well was read at 544/590 nm for cell viability. […] The inflammatory cytokines TNFα, CXCL1 and IL1a in the cell culture supernatants were analysed by Luiminex. […]

CXCL1 = CXCL1 expression in TNFα-stimulated primary keratinocytes (Luminex on supernatant); format: cell-based, human; details: CXCL1, IL1a and TNFα in TNFα-stimulated keratinocytes; concentration where ENaC, NCX1 and NHE1 were predicted to be targeted
Procedure: Primary keratinocytes were stimulated with TNFα (5 ng/ml) for 24 hours and expression of pro-inflammatory cytokines involved in inflammatory skin disease was analyzed with benzamil as inhibitor and compared to inhibitors with different affinity to ENaC/NCX1/NHE1 (amiloride), ENaC but not NCX1 and NHE1 (Camostat mesilate), NCX1 but not ENaC or NHE1 (KB-R7943) or NHE but not ENaC or NCX1 (zoniporide).
Primary human keratinocytes were thawed according to manufacturer's instructions, washed in growth medium (GM) and viability assessed via Tryphan blue. Cells were incubated at 37° C. with 5% CO2. After confluence, a stock cell solution of 1.5×10^5 cells/ml was prepared in GM. 200 μL of the cell suspension was added to each well of respective 96 well plates for a total of 3×10^4 cells/well. Cells were incubated at 37° C. with 5% CO2 overnight for adherence. After overnight incubation, cell culture media was removed from each well and 100 μL of fresh GM was added to each well. Appropriate concentrations of inhibitor compound, vehicle and TNFα was prepared in GM of a final volume of 3 ml. […]
100 μl of each treatment was added to appropriate wells. […] 24 hours post TNFα stimulation, the fluorescence of each well was read at 544/590 nm for cell viability. […] The inflammatory cytokines TNFα, CXCL1 and IL1a in the cell culture supernatants were analysed by Luiminex. […]

ENaC [4] = details: cited from earlier work; remark: listed apart in the source

Compound: CN(C)C(=O)COC(=O)Cc1ccc(OC(=O)c2ccc(NC(=N)N)cc2)cc1 [Camostat Mesilate, Camostat mesilate]
- IC50 (ENaC [1]): 50 nM

Compound: N=C(N)SCCc1ccc(OCc2ccc([N+](=O)[O-])cc2)cc1 [KB-R7943]
- IC50 (NCX): 5000 to 10000 nM

Compound: N=C(N)NC(=O)c1nc(Cl)c(N)nc1N [amiloride]
- serum concentration [2]: 20.6 ng/mL
- IC50 (ENaC [1]): 100 nM

Compound: NC(=NCc1ccccc1)NC(=O)c1nc(Cl)c(N)nc1N [benzamil]
- proliferation ([3]; FIG. 6): does not reduce proliferation
- proliferation ([3]; FIG. 6, listed as Benzamil): did not reduce proliferation
- efficacious concentration for reducing cytokine expression (CXCL1): above 1 uM

Compound: NC(=Nc1ccccc1)NC(=O)c1nc(Cl)c(N)nc1N [phenamil]
- in vivo efficacy specifically on ENaC relative to amiloride (ENaC [4]): equivalent to amiloride
